Test results reported in the NIST ThermoML archive (doi:10.1016/j.jct.2016.09.028).
± gives the expanded uncertainty stated by the source.

What was measured:
[1] = 100 kPa, Liquid; for speed of sound: Frequency=3 MHz, Sing-around technique in a fixed-path interferometer; for mass density: Vibrating tube method
[2] = xn = mol fraction of the nth substance listed; settings: 100 kPa, Liquid, x1 = 1; for speed of sound: Frequency=3 MHz, Sing-around technique in a fixed-path interferometer; for mass density: Vibrating tube method

| SMILES | speed of sound ([1]; 293.15 K) [m/s] | mass density ([1]; 293.15 K) [kg/m3] | speed of sound ([1]; 303.15 K) [m/s] | mass density ([1]; 303.15 K) [kg/m3] | speed of sound ([1]; 313.15 K) [m/s] | mass density ([1]; 313.15 K) [kg/m3] | speed of sound ([1]; 323.15 K) [m/s] | mass density ([1]; 323.15 K) [kg/m3] | speed of sound ([2]; 293.15 K) [m/s] | mass density ([2]; 293.15 K) [kg/m3] | speed of sound ([2]; 303.15 K) [m/s] | mass density ([2]; 303.15 K) [kg/m3] | speed of sound ([2]; 313.15 K) [m/s] | mass density ([2]; 313.15 K) [kg/m3] | speed of sound ([2]; 323.15 K) [m/s] | mass density ([2]; 323.15 K) [kg/m3] |
| --- | --- | --- | --- | --- | --- | --- | --- | --- | --- | --- | --- | --- | --- | --- | --- | --- |
| CCn1cc[n+](C)c1.F[B-](F)(F)F [1-ethyl-3-methylimidazolium tetrafluoroborate] | 1632.6 ± 2.4 | 1283.64 ± 1.7 | 1609.5 ± 2.4 | 1276.12 ± 1.7 | 1586.2 ± 2.4 | 1268.57 ± 1.6 | 1563.4 ± 2.3 | 1261.04 ± 1.6 |  |  |  |  |  |  |  |  |
| CCn1cc[n+](C)c1.F[B-](F)(F)F [1-ethyl-3-methylimidazolium tetrafluoroborate] + Nc1ccccc1 |  |  |  |  |  |  |  |  | 1632.6 ± 2.4 | 1283.64 ± 1.7 | 1609.5 ± 2.4 | 1276.12 ± 1.7 | 1586.2 ± 2.4 | 1268.57 ± 1.6 | 1563.4 ± 2.3 | 1261.04 ± 1.6 |
